From US6479435B1, “Diaryl ethers and processes for their preparation and herbicidal and desiccant compositions containing them” (ISK Americas Incorporated, priority 1997, dated 2002)

Assays:
Format in all cases: in vivo
[1] = tested on: sicklepod (Cassia obtusifolia, CASOB); assay: Pre-emerge greenhouse herbicide test, phytotoxicity rating; settings: 14 days after application, rating scale 0-100
Excerpt: (§1) A standard greenhouse herbicide activity screening system was used to evaluate the herbicidal efficacy and crop safety of these test compounds. Six broadleaf weed species including redroot pigweed (Amaranthus retroflexus, AMARE), velvetleaf (Abutilon theophrasti, ABUTH), sicklepod (Cassia obtusifolia, CASOB), ivyleaf morningglory (Ipomoea hederacea, IPOHE), lambsquarters (Chenopodium album, CHEAL) and common ragweed (Ambrosia artemisiifolia L., AMBEL) were used as test species. Four grass weed species including green foxtail (Setaria viridis, SETVI), barnyardgrass (Echinochloa crusgalli, ECHCG), Johnsongrass (Sorghum halepense, SORHA), and large crabgrass (Digitaria sanguinalis, DIGSA) were also used. In addition, three crop species, field corn (Zea mays L., var. Dekalb 535, CORN), soybean (Glycine max L., var. Pella 86, SOY), and upland rice (Oryza sp., var.Tebonnet, RICE) were included.
(§2) All plants were grown in 10 cm square plastic pots which were filled with a sandy loam soil mix. For preemerge tests, seeds were planted one day prior to application of the test compounds. Immediately after application, test units of the pre-emerge applications were watered at the soil surface to incorporate the test materials. Subsequently, these test units were bottom-watered.
(§3) All test compounds were dissolved in acetone and applied to the test units in a volume of 187 l/ha. Test materials were applied at rates ranging from 125 g ai/ha to 1000 g ai/ha using a track sprayer equipped with a TJ8001E even flow flat fan spray nozzle. Plants were arranged on a shelf so that the top of the canopy (post-emerge) or top of the soil surface (pre-emerge) was 40-45 cm below the nozzle. Pressurized air was used to force the test solution through the nozzle as it was mechanically advanced (via electrically driven chain drive) over the top of all test plants/pots. This application simulates a typical commercial field herbicide application.
(§4) At 14 days after application of the test materials, phytotoxicity ratings were recorded. A rating scale of 0-100 was used as previously described in Research Methods in Weed Science, 2nd edition, B. Truelove, Ed., Southern Weed Science Society, Auburn University, Auburn, Ala., 1977. Briefly, “0” corresponds to no damage and “100” corresponds to complete death of all plants in the test unit. This scale was used both to determine efficacy against weed species and damage to crop species. Herbicide activity data for various compounds of this invention, which are shown by compound number in Tables 1-9, are shown in Tables 13 and 14.

[2] = tested on: velvetleaf (Abutilon theophrasti, ABUTH); assay: as above; settings: 14 days after application, rating scale 0-100
Excerpt: as §1, §2, §3, §4

[3] = tested on: green foxtail (Setaria viridis, SETVI); assay: as above; settings: 14 days after application, rating scale 0-100
Excerpt: as §1, §2, §3, §4

[4] = tested on: lambsquarters (Chenopodium album, CHEAL); assay: as above; settings: 14 days after application, rating scale 0-100
Excerpt: as §1, §2, §3, §4

[5] = tested on: barnyardgrass (Echinochloa crusgalli, ECHCG); assay: as above; settings: 14 days after application, rating scale 0-100
Excerpt: as §1, §2, §3, §4

[6] = tested on: large crabgrass (Digitaria sanguinalis, DIGSA); assay: as above; settings: 14 days after application, rating scale 0-100
Excerpt: as §1, §2, §3, §4

[7] = tested on: redroot pigweed (Amaranthus retroflexus, AMARE); assay: as above; settings: 14 days after application, rating scale 0-100
Excerpt: as §1, §2, §3, §4

[8] = tested on: Johnsongrass (Sorghum halepense, SORHA); assay: as above; settings: 14 days after application, rating scale 0-100
Excerpt: as §1, §2, §3, §4

[9] = tested on: ivyleaf morningglory (Ipomoea hederacea, IPOHE); assay: as above; settings: 14 days after application, rating scale 0-100
Excerpt: as §1, §2, §3, §4

[10] = tested on: field corn (Zea mays L., var. Dekalb 535, CORN); assay: Pre-emerge greenhouse test, crop damage rating; settings: 14 days after application, rating scale 0-100
Excerpt: as §1, §2, §3, §4

[11] = tested on: upland rice (Oryza sp., var.Tebonnet, RICE); assay: Pre-emerge greenhouse test, crop damage rating; settings: 14 days after application, rating scale 0-100
Excerpt: as §1, §2, §3, §4

[12] = tested on: soybean (Glycine max L., var. Pella 86, SOY); assay: Post-emerge greenhouse test, crop damage rating; settings: 14 days after application
Excerpt: as §1, §3
(§5) In the post-emerge test, a commercial non-ionic surfactant was also included (0.25% v/v) to enhance wetting of the leaf surfaces Qf target plants at rates ranging from 63 g ai/ha to 1000 g ai/ha. For post-emerge tests, seeds were planted 8-21 days prior to the test to allow emergence and good foliage development prior to application of the test substances. At the time of the post-emerge application, plants of all species were usually at the 2-3 leaf stage of development. Post-emerge test units were always bottom-watered.
as §4

[13] = tested on: field corn (Zea mays L., var. Dekalb 535, CORN); assay: Post-emerge greenhouse test, crop damage rating; settings: 14 days after application
Excerpt: as §1, §3, §5, §4

[14] = tested on: upland rice (Oryza sp., var.Tebonnet, RICE); assay: Post-emerge greenhouse test, crop damage rating; settings: 14 days after application
Excerpt: as §1, §3, §5, §4

[15] = tested on: sicklepod (Cassia obtusifolia, CASOB); assay: Post-emerge greenhouse herbicide test, phytotoxicity rating; settings: 14 days after application
Excerpt: as §1, §3, §5, §4

[16] = tested on: velvetleaf (Abutilon theophrasti, ABUTH); assay: as above; settings: 14 days after application
Excerpt: as §1, §3, §5, §4

[17] = tested on: green foxtail (Setaria viridis, SETVI); assay: as above; settings: 14 days after application
Excerpt: as §1, §3, §5, §4

[18] = tested on: lambsquarters (Chenopodium album, CHEAL); assay: as above; settings: 14 days after application
Excerpt: as §1, §3, §5, §4

[19] = tested on: barnyardgrass (Echinochloa crusgalli, ECHCG); assay: as above; settings: 14 days after application
Excerpt: as §1, §3, §5, §4

[20] = tested on: large crabgrass (Digitaria sanguinalis, DIGSA); assay: as above; settings: 14 days after application
Excerpt: as §1, §3, §5, §4

[21] = tested on: redroot pigweed (Amaranthus retroflexus, AMARE); assay: as above; settings: 14 days after application
Excerpt: as §1, §3, §5, §4

[22] = tested on: Johnsongrass (Sorghum halepense, SORHA); assay: as above; settings: 14 days after application
Excerpt: as §1, §3, §5, §4

[23] = tested on: ivyleaf morningglory (Ipomoea hederacea, IPOHE); assay: as above; settings: 14 days after application
Excerpt: as §1, §3, §5, §4

[24] = tested on: soybean (Glycine max L., var. Pella 86, SOY); assay: Pre-emerge greenhouse test, crop damage rating; settings: 14 days after application, rating scale 0-100
Excerpt: as §1, §2, §3, §4

## O=c1cc2n(c(=O)n1-c1cc(Oc3ncccn3)c(Cl)cc1F)CCC2 [Compound 5-12]
[1]; 125 g ai/ha
  phytotoxicity rating CASOB: 50
[1]; 500 g ai/ha
  phytotoxicity rating CASOB: 100
[2]; 125 g ai/ha
  phytotoxicity rating ABUTH: 100
[2]; 500 g ai/ha
  phytotoxicity rating ABUTH: 100
[3]; 125 g ai/ha
  phytotoxicity rating SETVI: 100
[3]; 500 g ai/ha
  phytotoxicity rating SETVI: 100
[4]; 125 g ai/ha
  phytotoxicity rating CHEAL: 100
[4]; 500 g ai/ha
  phytotoxicity rating CHEAL: 100
[5]; 125 g ai/ha
  phytotoxicity rating ECHCG: 20
[5]; 500 g ai/ha
  phytotoxicity rating ECHCG: 100
[6]; 125 g ai/ha
  phytotoxicity rating DIGSA: 100
[6]; 500 g ai/ha
  phytotoxicity rating DIGSA: 100
[7]; 125 g ai/ha
  phytotoxicity rating AMARE: 100
[7]; 500 g ai/ha
  phytotoxicity rating AMARE: 100
[8]; 125 g ai/ha
  phytotoxicity rating SORHA: 40
[8]; 500 g ai/ha
  phytotoxicity rating SORHA: 100
[9]; 125 g ai/ha
  phytotoxicity rating IPOHE: 80
[9]; 500 g ai/ha
  phytotoxicity rating IPOHE: 100
[10]; 125 g ai/ha
  crop damage rating CORN: 10
[10]; 500 g ai/ha
  crop damage rating CORN: 40
[11]; 125 g ai/ha
  crop damage rating RICE: 60
[11]; 500 g ai/ha
  crop damage rating RICE: 100
[12]; 63 g al/ha
  SOY crop damage rating (0-100): 50
[12]; 500 g al/ha
  SOY crop damage rating (0-100): 100
[13]; 63 g al/ha
  CORN crop damage rating (0-100): 0
[13]; 500 g al/ha
  CORN crop damage rating (0-100): 20
[14]; 63 g al/ha
  RICE crop damage rating (0-100): 0
[14]; 500 g al/ha
  RICE crop damage rating (0-100): 70
[15]; 63 g al/ha
  CASOB phytotoxicity rating (0-100): 10
[15]; 500 g al/ha
  CASOB phytotoxicity rating (0-100): 50
[16]; 63 g al/ha
  ABUTH phytotoxicity rating (0-100): 60
[16]; 500 g al/ha
  ABUTH phytotoxicity rating (0-100): 95
[17]; 63 g al/ha
  SETVI phytotoxicity rating (0-100): 0
[17]; 500 g al/ha
  SETVI phytotoxicity rating (0-100): 50
[18]; 63 g al/ha
  CHEAL phytotoxicity rating (0-100): 60
[18]; 500 g al/ha
  CHEAL phytotoxicity rating (0-100): 75
[19]; 63 g al/ha
  ECHCG phytotoxicity rating (0-100): 0
[19]; 500 g al/ha
  ECHCG phytotoxicity rating (0-100): 40
[20]; 63 g al/ha
  DIGSA phytotoxicity rating (0-100): 0
[20]; 500 g al/ha
  DIGSA phytotoxicity rating (0-100): 40
[21]; 63 g al/ha
  AMARE phytotoxicity rating (0-100): 80
[21]; 500 g al/ha
  AMARE phytotoxicity rating (0-100): 40
[22]; 63 g al/ha
  SORHA phytotoxicity rating (0-100): 0
[22]; 500 g al/ha
  SORHA phytotoxicity rating (0-100): 20
[23]; 63 g al/ha
  IPOHE phytotoxicity rating (0-100): 40
[23]; 500 g al/ha
  IPOHE phytotoxicity rating (0-100): 30
[24]; 125 g ai/ha
  crop damage rating SOY: 40
[24]; 500 g ai/ha
  crop damage rating SOY: 80

## O=c1cc2n(c(=O)n1-c1cc(Oc3ccccc3[N+](=O)[O-])c(Cl)cc1F)CCC2 [Compound 5-1]
[1]; 1000 g ai/ha
  phytotoxicity rating CASOB: 40
[2]; 1000 g ai/ha
  phytotoxicity rating ABUTH: 100
[3]; 1000 g ai/ha
  phytotoxicity rating SETVI: 99
[4]; 1000 g ai/ha
  phytotoxicity rating CHEAL: 100
[5]; 1000 g ai/ha
  phytotoxicity rating ECHCG: 95
[6]; 1000 g ai/ha
  phytotoxicity rating DIGSA: 100
[7]; 1000 g ai/ha
  phytotoxicity rating AMARE: 99
[8]; 1000 g ai/ha
  phytotoxicity rating SORHA: 90
[9]; 1000 g ai/ha
  phytotoxicity rating IPOHE: 70
[10]; 1000 g ai/ha
  crop damage rating CORN: 5
[11]; 1000 g ai/ha
  crop damage rating RICE: 70
[12]; 1000 g al/ha
  SOY crop damage rating (0-100): 40
[13]; 1000 g al/ha
  CORN crop damage rating (0-100): 0
[14]; 1000 g al/ha
  RICE crop damage rating (0-100): 10
[15]; 1000 g al/ha
  CASOB phytotoxicity rating (0-100): 10
[16]; 1000 g al/ha
  ABUTH phytotoxicity rating (0-100): 100
[17]; 1000 g al/ha
  SETVI phytotoxicity rating (0-100): 20
[18]; 1000 g al/ha
  CHEAL phytotoxicity rating (0-100): 80
[19]; 1000 g al/ha
  ECHCG phytotoxicity rating (0-100): 30
[20]; 1000 g al/ha
  DIGSA phytotoxicity rating (0-100): 0
[21]; 1000 g al/ha
  AMARE phytotoxicity rating (0-100): 30
[22]; 1000 g al/ha
  SORHA phytotoxicity rating (0-100): 10
[23]; 1000 g al/ha
  IPOHE phytotoxicity rating (0-100): 90
[24]; 1000 g ai/ha
  crop damage rating SOY: 55

## CCOC(=O)C(C)Oc1ccc(Oc2cc(-n3c(=O)cc4n(c3=O)CCC4)c(F)cc2Cl)cc1 (stereo not drawn) [Compound 5-6]
[1]; 1000 g ai/ha
  phytotoxicity rating CASOB: 40
[2]; 1000 g ai/ha
  phytotoxicity rating ABUTH: 100
[3]; 1000 g ai/ha
  phytotoxicity rating SETVI: 100
[4]; 1000 g ai/ha
  phytotoxicity rating CHEAL: 100
[5]; 1000 g ai/ha
  phytotoxicity rating ECHCG: 70
[6]; 1000 g ai/ha
  phytotoxicity rating DIGSA: 70
[7]; 1000 g ai/ha
  phytotoxicity rating AMARE: 100
[8]; 1000 g ai/ha
  phytotoxicity rating SORHA: 50
[9]; 1000 g ai/ha
  phytotoxicity rating IPOHE: 100
[10]; 1000 g ai/ha
  crop damage rating CORN: 40
[11]; 1000 g ai/ha
  crop damage rating RICE: 80
[12]; 1000 g al/ha
  SOY crop damage rating (0-100): 80
[13]; 1000 g al/ha
  CORN crop damage rating (0-100): 80
[14]; 1000 g al/ha
  RICE crop damage rating (0-100): 60
[15]; 1000 g al/ha
  CASOB phytotoxicity rating (0-100): 40
[16]; 1000 g al/ha
  ABUTH phytotoxicity rating (0-100): 100
[17]; 1000 g al/ha
  SETVI phytotoxicity rating (0-100): 50
[18]; 1000 g al/ha
  CHEAL phytotoxicity rating (0-100): 100
[19]; 1000 g al/ha
  ECHCG phytotoxicity rating (0-100): 95
[20]; 1000 g al/ha
  DIGSA phytotoxicity rating (0-100): 40
[21]; 1000 g al/ha
  AMARE phytotoxicity rating (0-100): 90
[22]; 1000 g al/ha
  SORHA phytotoxicity rating (0-100): 95
[23]; 1000 g al/ha
  IPOHE phytotoxicity rating (0-100): 100
[24]; 1000 g ai/ha
  crop damage rating SOY: 60
